What was measured:
293T cells = assay: anti-BrdU immunofluorescent staining of 293T cells treated with 5-FC or 5-FU; format: cell-based, human; details: untransfected control 293T cells, 250 μM, 24 h
Description: S. cerevisiae CD was exogenously expressed in human embryonic kidney 293T cells, and the cells were treated with 250 μM fluorocytosine (5-FC). This system is predicted to generate intracellular fluorouracil (5-FU), which is then incorporated into newly synthesized RNAs (FIG. 1a, b). Antibodies against bromodeoxyuridine (BrdU) can recognize BrdU and other halogenated uridines incorporated into nucleic acids (8).
(§1) Human embryonic kidney transformed with […] (293T) and human breast cancer MDA-MB-231 (MDA231) cells were cultured in DMEM High Glucose medium (Wheaton) supplemented with 10% Fetal Bovine Serum (Clontech, Catalog number 631106) supplemented with 2 mM L-Glutamine. All cell lines have been routinely tested for mycoplasma contamination. For the induction of CD or CD and UPRT, cells were treated with 1 μg/ml doxycycline for 24 h. For Fluorouracil tagging, cells were treated with 250 μM of 5-FC or 5-FU unless indicated. Where indicated, 125 μM thymine was added together with 5-FC. For the formation of stress granules, cells were treated with 500 μM Sodium Arsenite (Santa Cruz Biotechnologies, Catalog number SC-301816).
Cells were fixed with 4% paraformaldehyde for 10 min, permeabilized with 0.2% TritonX-100 for 10 min, blocked with 5% BSA for one hour at room temperature, prior to incubation with primary antibodies at 4° C. overnight, and secondary antibodies (Thermo Fisher anti-chicken antibody, Catalog number A-11039, Thermo Fisher anti-rat antibody, Catalog number A-11006, Abcam anti-rat antibody, Catalog number ab150117) incubated for 1 h at room temperature. Mouse lungs were fixed in 4% paraformaldehyde overnight at 4° C., embedded in paraffin and sectioned. The lung sections were deparaffinized and stained with hematolxylin/eosin or immunostained using standard protocols. Automated image analysis was performed using the FIJI software package.

MDA231 cells = assay: stress granule formation by G3BP immunostaining; format: cell-based; details: 500 μM sodium arsenite, positive control
Description: FIG. 2a-b. Flura-tagging has minimal cytotoxicity. FIG. 2a—Effect of Flura-tagging on stress granule formation. MDA231 cells were treated with 5-FC for the indicated times, and the formation of stress granules was detected by G3BP immunostaining. Control cells were either treated with water or sodium arsenite (Arsenite) for one hour. Arrows indicate stress granules (n=3). Scale bar=20 μM. FIG. 2b—Effect of Flura-tagging on transcription. RNA expression in control cells was compared to CD/UPRT-expressing cells treated with the indicated concentrations of 5-FC for 4 h or 12 h. Each dot represents a gene, with the outer/lighter gray dots indicating genes showing more than 2-fold differential expression, as determined by DESeq2 (n=2). The dotted line represents the four-fold cutoff mark.
5-FU is extensively used as a chemotherapeutic agent for the treatment of solid tumors, based on its ability to induce cancer cell death by inhibiting thymidylate synthase and by causing DNA and RNA damage (12-14). It was therefore crucial to test whether our 5-FU-tagging method, which is based on low concentrations of 5-FC and short incubation time periods, has significant cytotoxic effects under our experimental conditions. CD/UPRT-expressing cells were treated with 5-FC at concentrations of up to 250 μM for up to 12 h (“Flura-tagged” cells), and the effects of this treatment on RNA damage response and transcriptional regulation were investigated.
A key feature of the RNA damage response is the formation of stress granules (15). Ras GTPase-activating protein-binding protein 1 (G3BP), a key component of stress granules, forms distinct foci during stress granule formation (12). We determined the dose- and time-dependent effect of 5-FC treatment on stress granule formation by immunostaining of the cells with anti-G3BP antibody. […] The 5-FC-treated cells started to form stress granules only after 24 h of treatment with 1 mM 5-FC, a concentration four times higher than the maximal concentration of 5-FC used for Flura-tagging, or after 48 h of 5-FC treatment at lower concentrations (FIG. 2a).
as §1, with “For the formation of stress granules, cells were treated with 500 μM Sodium Arsenite (Santa Cruz Biotechnologies, Catalog number SC-301816).” left out

[1] = test system: MDA231 cells expressing CD/UPRT in mouse lungs; assay: signal-to-noise ratio of Flura-tagging and TU-tagging in vivo, lung colonization xenograft, RT-PCR; details: 250 mg/kg, 12 h post injection
Description: FIG. 3 a-g. Flura-tagging of mRNA in vivo. FIG. 3a—Schematic diagram of lung colonization xenograft assay used for evaluation of Flura-tagging/Flura-seq. Athymic mice were injected through the tail vein with 50,000 MDA231 cells expressing CD/UPRT and GFP-luciferase. Upon the development of detectable bioluminescent lung metastases (4 weeks), mice were treated with doxycycline to induce CD/UPRT expression and injected with 5-FC. Lungs were harvested, and Flura-tagged mRNAs were immunopurified. FIG. 3b—Comparison of signal-to-noise ratio of Flura-tagging and TU-tagging in vivo. Mice were injected with either 5-FC or TU, the Flura-tagged or TU-tagged mRNAs were purified 12 h post injection, and the relative fold enrichment of representative human housekeeping genes relative to representative murine housekeeping genes (mHPRT1, mLDH1, mPGK1 and mGAPDH), normalized to their corresponding unpurified inputs, were measured by RT-PCR (n=5, ±S.E.). FIG. 3c—Quantification of the number of human cells in the mouse lungs used for Flura-tagging. Half of the mouse lungs used for Flura-tagging in FIG. 3b was dissociated into single cells, and the number of RFP+ cells was quantified using flow cytometry. The total number of MDA231 cells per lung was estimated based on an assumption of 1.5×10^8 cells per mouse lung (20) (n=5). […] RNA reads were aligned to a hybrid genome containing the human and mouse genomes. […]

With `O=c1[nH]cc(F)c(=O)[nH]1` [5-FU, 5-fluoro-uracil] the “immunostaining with anti-BrdU antibody” value (293T cells) was “positive immunostaining”.

With `O=[As]O` [sodium arsenite] the “time to formation of distinct G3BP foci” value (MDA231 cells) was ≤ 1 h.

With `O=c1cc[nH]c(=S)[nH]1` [thiouracil] the “enrichment of human mRNAs compared to mouse mRNAs” value [1] was “approximately 10 fold”.
